Experimental data: PubChem BioAssay AID1259408 (Genetic Toxicology Data Bank (GENE-TOX), 2018)
Calls of active or inactive are those of the source. No rule for the calls is given here.

Test system: GENE-TOX genotoxicity assays, various organisms and cells
Assay: GENE-TOX mutagenicity studies
Conditions: for call: Assay Type: In vivo carcinogenicity studies
[1] = Species/Cell Type: Bacillus subtilis (H17 vs M45), Assay Type: Rec-assay, spot test, DNA effects (bacterial DNA repair), Assay Code: REWT, Evaluation Type: Evaluation A (Pre-1980)
[2] = Species/Cell Type: Mouse, Sex: Male, Assay Type: Sperm morphology, Assay Code: SPI-, Evaluation Type: Evaluation A (Pre-1980)
[3] = Species/Cell Type: Salmonella typhimurium (one or more of the five standard strains: TA98, TA100, TA1535, TA1537, and TA1538), Assay Type: Histidine reverse gene mutation, Ames assay, Assay Code: SAL+*, Activation: With metabolic activation, Evaluation Type: Evaluation A (Pre-1980)
[4] = Species/Cell Type: Tradescantia species, Assay Type: Gene mutation, Assay Code: TRM+D, Dose Response: With dose response, Evaluation Type: Evaluation A (Pre-1980)
[5] = Species/Cell Type: Salmonella typhimurium (one or more of the five standard strains: TA98, TA100, TA1535, TA1537, and TA1538), Assay Type: Histidine reverse gene mutation, Ames assay, Assay Code: SAL-, Evaluation Type: Evaluation A (Pre-1980)
[6] = Species/Cell Type: Syrian hamster embryo (SA7/SHE) cells, Assay Type: Cell transformation, viral enhanced, Assay Code: CT7-, Evaluation Type: Evaluation A (Pre-1980)
[7] = Species/Cell Type: Nonhuman, Assay Type: Sister-chromatid exchange (SCE) in vivo, Assay Code: SC3T, Evaluation Type: Evaluation B (Post-1980)
[8] = Species/Cell Type: Salmonella typhimurium (one or more of the five standard strains: TA98, TA100, TA1535, TA1537, and TA1538), Assay Type: Histidine reverse gene mutation, Ames assay, Assay Code: SALT, Evaluation Type: Evaluation A (Pre-1980)

## CCNc1nc(Cl)nc(NC(C)C)n1
Species/Cell Type: Aspergillus nidulans, Assay Type: Reverse gene mutation, Assay Code: ASR+*, Activation: With metabolic activation, Evaluation Type: Evaluation A (Pre-1980)
  mutagenic call: active; positive
Species/Cell Type: Drosophila melanogaster, Assay Type: Aneuploidy, sex chromosome gain, chromosome aberrations, Assay Code: DAGT, Evaluation Type: Evaluation A (Pre-1980)
  mutagenic call: no conclusion
Species/Cell Type: Drosophila melanogaster, Assay Type: Aneuploidy, whole sex chromosome loss, chromosome aberrations, Assay Code: DACT, Evaluation Type: Evaluation A (Pre-1980)
  mutagenic call: no conclusion
Species/Cell Type: Drosophila melanogaster, Assay Type: Sex-linked recessive lethal gene mutation, Assay Code: SRLT, Evaluation Type: Evaluation A (Pre-1980)
  mutagenic call: no conclusion
Species/Cell Type: Hordeum vulgare (barley), Assay Type: Chromosome aberrations, Assay Code: HOC+, Evaluation Type: Evaluation A (Pre-1980)
  mutagenic call: active; positive
Species/Cell Type: Neurospora crassa, Assay Type: Aneuploidy, chromosome aberrations, Assay Code: NEN-, Evaluation Type: Evaluation A (Pre-1980)
  mutagenic call: inactive; negative
Species/Cell Type: Saccharomyces cerevisiae, Assay Type: Mitotic recombination or gene conversion, Assay Code: YEC+*, Activation: With metabolic activation, Evaluation Type: Evaluation A (Pre-1980)
  mutagenic call: active; positive
Species/Cell Type: Tradescantia species, Assay Type: Gene mutation, Assay Code: TRM-, Evaluation Type: Evaluation A (Pre-1980)
  mutagenic call: inactive; negative
Species/Cell Type: Vicia faba, Assay Type: Chromosome aberrations, Assay Code: VIC+, Evaluation Type: Evaluation A (Pre-1980)
  mutagenic call: active; positive
Species/Cell Type: Zea mays (corn), Assay Type: Gene mutation, Assay Code: ZEM+F, Evaluation Type: Evaluation A (Pre-1980)
  mutagenic call: active; positive

## O=C1c2ccccc2C(=O)c2c1ccc(O)c2O
Species/Cell Type: Allium cepa, Assay Type: Chromosome aberrations, Assay Code: ALC+, Evaluation Type: Evaluation A (Pre-1980)
  mutagenic call: active; positive
[1]
  mutagenic call: no conclusion

## O=C1CCCO1
Species/Cell Type: Mammalian polychromatic erythrocytes, Assay Type: Micronucleus test, chromosome aberrations, Assay Code: MNTT, Evaluation Type: Evaluation A (Pre-1980)
  mutagenic call: no conclusion
[2]
  mutagenic call: inactive; negative
Species/Cell Type: Nonhuman, Assay Type: Sister-chromatid exchange (SCE) in vitro, Assay Code: SC2+, Evaluation Type: Evaluation B (Post-1980)
  mutagenic call: active; positive

## c1ccc2c3c(ccc2c1)Cc1c(ccc2ccccc12)C3
[3]
  mutagenic call: active; positive

## FC(F)Cl
[4]
  mutagenic call: active; positive

## CCN(CCCl)CCCNc1c2ccccc2nc2c1ccc1cccnc12
Species/Cell Type: Chinese hamster ovary (CHO) cells, Assay Type: Forward gene mutation at the HPRT locus, Assay Code: CHO+, Evaluation Type: Evaluation B (Post-1980)
  mutagenic call: active; positive

## Cc1cc2c3ccccc3ccc2c2ccccc12
[3]
  mutagenic call: active; positive

## CN(N=O)C(=O)NC1O[C@H](CO)[C@@H](O)[C@H](O)[C@H]1O (stereo partly drawn)
Species/Cell Type: Chinese hamster lung (V79) cells, Assay Type: Forward gene mutation at the HPRT or ouabain locus, Assay Code: V79+, Evaluation Type: Evaluation A (Pre-1980)
  mutagenic call: active; positive

## [Cl][Cu][Cl]
Species/Cell Type: Bacillus subtilis (H17 vs M45), Assay Type: Rec-assay, spot test, DNA effects (bacterial DNA repair), Assay Code: REW-, Evaluation Type: Evaluation A (Pre-1980)
  mutagenic call: inactive; negative

## CCCCC/C=C\C/C=C\C/C=C\CCCCC(=O)O
Species/Cell Type: Mammalian polychromatic erythrocytes, Assay Type: Micronucleus test, chromosome aberrations, Assay Code: MNTT, Evaluation Type: Evaluation B (Post-1980)
  mutagenic call: no conclusion

## CC1=NN(c2ccccc2)C(=O)C1
Species/Cell Type: Nonhuman, Assay Code: CCG-L, Evaluation Type: Evaluation A (Pre-1980)
  call: inactive; negative

## CN(C)Cc1cc(Br)ccc1OCC(=O)N/N=C/c1ccccc1
Species/Cell Type: Saccharomyces cerevisiae, Assay Type: Reverse gene mutation, Assay Code: YERT, Evaluation Type: Evaluation A (Pre-1980)
  mutagenic call: no conclusion

## C1CCCCC1
[5]
  mutagenic call: inactive; negative
[6]
  mutagenic call: inactive; negative

## O=[N+]([O-])c1ccc(-c2csc(Cl)n2)o1
Species/Cell Type: Escherichia coli WP2, Assay Type: Tryptophan reverse gene mutation, Assay Code: WP2+, Evaluation Type: Evaluation A (Pre-1980)
  mutagenic call: active; positive
Species/Cell Type: Escherichia coli WP2 UVRA, Assay Type: Tryptophan reverse gene mutation, Assay Code: WPU+, Evaluation Type: Evaluation A (Pre-1980)
  mutagenic call: active; positive

## O=C[C@H](O)[C@@H](O)[C@H](O[C@@H]1O[C@H](CO)[C@H](O)[C@H](O)[C@H]1O)[C@H](O)CO
Species/Cell Type: Human lymphocytes, Assay Type: Sister-chromatid exchange (SCE) in vitro, Assay Code: SCLT, Evaluation Type: Evaluation B (Post-1980)
  mutagenic call: no conclusion
Species/Cell Type: Human, Assay Type: Sister-chromatid exchange (SCE) in vitro, Assay Code: SC1T, Evaluation Type: Evaluation B (Post-1980)
  mutagenic call: no conclusion
[7]
  mutagenic call: no conclusion

## Clc1cccc(Cl)c1
Species/Cell Type: Mammalian polychromatic erythrocytes, Assay Type: Micronucleus test, chromosome aberrations, Assay Code: MNT+, Evaluation Type: Evaluation B (Post-1980)
  mutagenic call: active; positive

## O[C@@H]1C=Cc2c(cc3ccc4cccc5ccc2c3c45)[C@@H]1O
[8]
  mutagenic call: no conclusion

## COc1ccc(C(=O)N2c3ccccc3Cc3ccccc32)cc1
Species/Cell Type: Human, Sex: Male, Assay Type: Sperm morphology, Assay Code: SPH+, Evaluation Type: Evaluation A (Pre-1980)
  mutagenic call: active; positive

## O=P(O)(O)CCCl
Species/Cell Type: Allium cepa, Assay Type: Chromosome aberrations, Assay Code: ALC+D, Dose Response: With dose response, Evaluation Type: Evaluation A (Pre-1980)
  mutagenic call: active; positive

## c1cc2ccc3ccc4ccc5cccc6c(c1)c2c3c4c56
[8]
  mutagenic call: no conclusion

## CCCCC(=O)N(C)N=O
Species/Cell Type: Saccharomyces cerevisiae, Assay Type: Reverse gene mutation, Assay Code: YER+, Evaluation Type: Evaluation A (Pre-1980)
  mutagenic call: active; positive

## O=S(O)CO
Species/Cell Type: Drosophila melanogaster, Sex: Male, Assay Type: Heritable translocation test, chromosome aberrations, Assay Code: DHTT, Evaluation Type: Evaluation A (Pre-1980)
  mutagenic call: no conclusion

## Nc1ccc(-c2ccc(N)cc2)cc1
Species/Cell Type: Drosophila melanogaster, Assay Type: Sex-linked recessive lethal gene mutation, Assay Code: SRL-, Evaluation Type: Evaluation A (Pre-1980)
  mutagenic call: inactive; negative
Species/Cell Type: Escherichia coli polA (W3119 vs P3478), Assay Type: Rec-assay, DNA effects (bacterial DNA repair), Assay Code: RE1T, Evaluation Type: Evaluation A (Pre-1980)
  mutagenic call: no conclusion
Species/Cell Type: Fischer rat embryo (RLV/1706) cells, Assay Type: Cell transformation, viral enhanced, Assay Code: CTR+, Evaluation Type: Evaluation A (Pre-1980)
  mutagenic call: active; positive
Species/Cell Type: Human diploid fibroblasts, Assay Type: Unscheduled DNA synthesis (UDS) in vitro, DNA effects, Assay Code: UDHT, Evaluation Type: Evaluation A (Pre-1980)
  mutagenic call: no conclusion
Species/Cell Type: Human, Assay Type: Sister-chromatid exchange (SCE) in vitro, Assay Code: SC1+D*, Activation: With metabolic activation, Dose Response: With dose response, Evaluation Type: Evaluation B (Post-1980)
  mutagenic call: active; positive
Species/Cell Type: Mammalian polychromatic erythrocytes, Assay Type: Micronucleus test, chromosome aberrations, Assay Code: MNT+, Evaluation Type: Evaluation A (Pre-1980)
  mutagenic call: active; positive
Species/Cell Type: Mouse embryo (AKR/ME) cells, Assay Type: Cell transformation, Assay Code: CTK+, Evaluation Type: Evaluation A (Pre-1980)
  mutagenic call: active; positive
[2]
  mutagenic call: inactive; negative
Species/Cell Type: Nonhuman, Assay Code: CCG+, Evaluation Type: Evaluation A (Pre-1980)
  call: active; positive
Species/Cell Type: Nonhuman, Assay Type: Sister-chromatid exchange (SCE) in vitro, Assay Code: SC2+D*, Activation: With metabolic activation, Dose Response: With dose response, Evaluation Type: Evaluation B (Post-1980)
  mutagenic call: active; positive
Species/Cell Type: Nonhuman, Assay Type: Sister-chromatid exchange (SCE) in vivo, Assay Code: SC3+, Evaluation Type: Evaluation B (Post-1980)
  mutagenic call: active; positive
Species/Cell Type: Rat primary hepatocytes, Assay Type: Unscheduled DNA synthesis (UDS) in vitro, DNA effects, Assay Code: UDP+, Evaluation Type: Evaluation A (Pre-1980)
  mutagenic call: active; positive
[3]
  mutagenic call: active; positive
Species/Cell Type: Syrian hamster embryo (SA7/SHE) cells, Assay Type: Cell transformation, viral enhanced, Assay Code: CT7+, Evaluation Type: Evaluation A (Pre-1980)
  mutagenic call: active; positive
Species/Cell Type: Syrian hamster embryo (SHE) cells, Assay Type: Cell transformation, clonal assay, Assay Code: CTC+, Evaluation Type: Evaluation A (Pre-1980)
  mutagenic call: active; positive
[4]
  mutagenic call: active; positive

## Cc1c2c(c(C)c3ccccc13)C(O)C(O)c1ccccc1-2 (stereo not drawn)
Species/Cell Type: Chinese hamster lung (V79) cells, Assay Type: Forward gene mutation at the HPRT or ouabain locus, Assay Code: V79-*, Activation: With metabolic activation, Evaluation Type: Evaluation A (Pre-1980)
  mutagenic call: inactive; negative

## O=S(=O)(O)c1ccc2c(N=Nc3ccc(S(=O)(=O)O)c4ccccc34)c(O)c(S(=O)(=O)O)cc2c1
[1]
  mutagenic call: no conclusion
Species/Cell Type: Bacillus subtilis (H17 vs M45T), Assay Type: Rec-assay, spot test, DNA effects (bacterial DNA repair), Assay Code: REXT, Evaluation Type: Evaluation A (Pre-1980)
  mutagenic call: no conclusion
Species/Cell Type: Rodents, Sex: Male, Assay Type: Dominant lethal test, Assay Code: DLT-, Evaluation Type: Evaluation A (Pre-1980)
  mutagenic call: inactive; negative
Species/Cell Type: Saccharomyces cerevisiae, Assay Type: Mitotic recombination or gene conversion, Assay Code: YEC-, Evaluation Type: Evaluation A (Pre-1980)
  mutagenic call: inactive; negative
[5]
  mutagenic call: inactive; negative
[6]
  mutagenic call: inactive; negative

## NC(=O)OCCO
Species/Cell Type: Nonhuman, Assay Type: Sister-chromatid exchange (SCE) in vitro, Assay Code: SC2+*, Activation: With metabolic activation, Evaluation Type: Evaluation B (Post-1980)
  mutagenic call: active; positive
[7]
  mutagenic call: no conclusion
